Results on three molecules are retold here after patent EP4759817A1, “HETEROARYL COMPOUND, PREPARATION METHOD THEREFOR, AND USE THEREOF IN MEDICINE” (Jiangsu Hengrui Pharmaceuticals Co., Ltd., priority 2023, dated 2025).

Molecules are shown by their SMILES.

The IC50 is the point on the concentration scale where inhibition reaches its midpoint. The low end stands for greater potency, the high end for weaker potency.

One series deals with HCT116 MTAP-/- cells. In words: HCT116 MTAP-/- cell proliferation assay (CellTiter-Glo, 10 days). It counts as cell-based. The note with it: Homo sapiens, HCT-116, 240 h, growth inhibition, CTG assay Day 10. An excerpt: (§1) • I. Experimental materials and instruments • 1. HCT116 cell line (Nanjing Kebai Biotechnology Co., Ltd., CBP60028) • 2. HCT116 MTAP-/- cell line (Nanjing Kebai Biotechnology Co., Ltd., CBP75002) • 3. DMSO (Sigma, D2650) • 4. McCoy's 5A medium (Gibco, 16600-082) • 5. Foetal bovine serum (FBS) (Gibco, 10091148) • 6. Phosphate buffered saline (DPBS) pH 7.4 (Gibco, 14190-144) • 7. Pen strep (PS) (Gibco, 15140-122) • 8. 0.25% Typsin-EDTA (1×) (Gibco, 25200-072) • 9. CellTiter-Glo® Luminescent Cell Viability Assay (Promega, G7572) • 10. 96-well round-bottom plate (JET, TCP002096) • 11. 96-well black clear bottom plate (Hangzhou Xinyou Biotechnology Co., Ltd., 060096) • 12. 1.2 mL 96-well deep well plate, clear, sterile, square-well, V-bottom (Titan, 02089063) • 13. 15-mL centrifuge tube (Titan) • 14. Biosafety cabinet (Thermo, 1300AII) • 15. Cell counter (Countstar, IC1000) • 16. Incubator (Thermo, I160) • 17. Centrifuge (Beckman coulter, Allegra X-12 centrifuge) • 18. PHERAstar FS microplate reader (BMG Labtech) • II. Experimental procedure • 1. Cell plating (Day 0) • a) The cell morphology was observed under a microscope to ensure confluence reached approximately 90%. • b) The cell supernatant was aspirated, the cells were washed once with PBS, and then the PBS was removed; and the cells were digested by adding an appropriate amount of trypsin, and left to stand at 37°C for 3 minutes. • c) The digestion was terminated by adding an equal volume of McCoy's 5A medium containing 10% FBS, and the cell suspension was collected and centrifuged at 300 g for 3 minutes; and the cells were resuspended in an appropriate amount of fresh medium. • d) The resuspended cell suspension was taken for counting. • e) The cell suspension was diluted to 1e4/mL using McCoy's 5A medium containing 10% FBS, and seeded at 50 µL per well, corresponding to 500 cells/well for HCT116 and 500 cells/well for HCT116 MTAP-/-. • f) The cell plate was placed in a 37°C, 5% carbon dioxide incubator and incubated overnight. • 2. Compound treatment (Day 1) • a) Each compound was serially diluted in DMSO to generate a 9-point concentration gradient (starting concentration: 10000 µM, 3-fold dilution; the highest concentration may be adjusted individually based on IC50 of different compounds); for example, in a 96-well round-bottom compound-dilution plate, 5 µL of the compound was sequentially diluted into 10 µL of DMSO. • b) Each concentration point of every compound was then diluted 250-fold into the corresponding volume of McCoy's 5A medium. • c) To each cell plate, 50 µL of the diluted compound solution as described above was added sequentially to the cell supernatant (50 µL/well). • d) The compound-treated cell plate was placed in a 37°C, 5% carbon dioxide incubator and incubated. • 3. Re-digestion, re-plating and compound treatment (Day 5) • a) After 5 days of compound treatment, the compound-containing medium was aspirated, and the cells were rinsed once with PBS (100 µL/well); and the PBS was removed immediately. • b) The cells were digested by adding 25 µL of trypsin and incubated at 37°C for 3 minutes, and then the digestion was terminated by adding 175 µL/well of McCoy's 5A medium containing 10% FBS. • c) The cells were mixed thoroughly using a pipette, and re-plated at 1 : 20; and specifically, 10 µL of the cell suspension was aspirated to a new 96-well plate (pre-filled with 40 µL of McCoy's 5A medium containing 10% FBS. • d) Compounds were prepared and added according to steps a) to c) in Section 2, with 50 µL added per well. • e) The compound-treated cell plate was placed in a 37°C, 5% carbon dioxide incubator and incubated. • 4. […]
Background: ATP-based viability assays read luminescence as a measure of living cells.

A further series concerns HCT116 cells. In words: HCT116 cell proliferation assay (CellTiter-Glo, 10 days). It counts as cell-based. The settings on record: Homo sapiens, HCT-116, 240 h, growth inhibition, CTG assay Day 10.
Source text: as §1, with “3.” for “3. Re-digestion, re-plating and compound treatment (Day 5) • a) After 5 days of compound treatment, the compound-containing medium was aspirated, and the cells were rinsed once with PBS (100 µL/well); and the PBS was removed immediately. • b) The cells were digested by adding 25 µL of trypsin and incubated at 37°C for 3 minutes, and then the digestion was terminated by adding 175 µL/well of McCoy's 5A medium containing 10% FBS. • c) The cells were mixed thoroughly using a pipette, and re-plated at 1 : 20; and specifically, 10 µL of the cell suspension was aspirated to a new 96-well plate (pre-filled with 40 µL of McCoy's 5A medium containing 10% FBS. • d) Compounds were prepared and added according to steps a) to c) in Section 2, with 50 µL added per well. • e) The compound-treated cell plate was placed in a 37°C, 5% carbon dioxide incubator and incubated. • 4.”

The test system of the next series is Lu99 xenografts. In words: Efficacy test in subcutaneous Lu99 xenograft model. The note with it: i.g., qd/21d. It counts as in vivo, NUNU nude mice. The text has this: To evaluate the inhibitory effect of the compounds of the present disclosure on tumour growth in a subcutaneous xenograft model using the human lung giant cell carcinoma cell line Lu99 in female NUNU nude mice
Using a solution of 20% PEG400 + 70% (10% TPGS) + 5%DMSO+5% (1% HPMCK100LV) solution
Laboratory animals: Female NUNU nude mice, purchased from Zhejiang Vital River Laboratory Animal Technology Co., Ltd. (License No.: SCXK(Zhe)2024-0001; animal qualification certificate No.: 20240524Abzz0619000789), weighing approximately 20-24 g at arrival.
Housing conditions: The mice were housed 5 per cage under a 12/12 h light/dark cycle, constant temperature of 23°C ± 1°C, humidity of 50%-60%, with free access to food and water.
After acclimatisation, NUNU nude mice were grouped and administered as follows: Table 4. Animal grouping and dosing regimen for in vivo efficacy experiment
(§2) 0.1 ml (5 × 10^5 cells ± 50% matrigel) of Lu99 cells (cell-to-matrigel volume ratio = 1 : 1) in the logarithmic growth phase was subcutaneously injected into the right upper limb of each mouse. When the mean tumour volume reached 75 mm^3, mice were randomly assigned to 4 groups (12 mice per group) based on tumour volume and body weight, as shown in Table 4. The day of grouping was designated as D0, and oral gavage administration was initiated once or twice daily for a total of 21 days. The 21st day after administration was designated as D21 (Table 5). Tumour volume and body weight of tumour-bearing mice were measured twice weekly using a calliper and a balance, respectively, and the data were recorded.
All data were plotted and statistically analysed using Excel and GraphPad Prism 10 software.
Tumour volume (V) was calculated using the formula: V = 1/2 × a × b^2, where a represents the length and b represents the width.
Relative tumour proliferation rate: T/C (%) = (T-T0)/(C-C0) × 100(%), where T and C are the tumour volumes of the treated and control groups at the end of the experiment, and T0 and C0 are the corresponding tumour volumes at the start of the experiment.
Tumour growth inhibition: TGI (%) = 100-T/C (%).

Series [1] can be described thus: Body weight and survival of tumour-bearing mice in the Lu99 efficacy test. The format is in vivo, NUNU nude mice. The settings on record: for Surviving animals/group: i.g., qd/21d. The procedure:
as §2

For the molecule `Cn1ncc(-c2ccc3c(=O)[nH]nc(CN)c3c2)c1-c1c(F)cc2c(c1C#N)O[C@H]1CC[C@H]1O2` (atropisomer, axis not shown; (M)) [Compound 1-p1, (M)-(2aS,8aR)-5-(4-(4-(aminomethyl)-1-oxo-1,2-dihydrophthalazin-6-yl)-1-methyl-1H-pyrazol-5-yl)-6-fluoro-1,2,2a,8a-tetrahydrobenzo[b]cyclobuta[e][1,4]dioxine-4-carbonitrile], the values for the IC50 with HCT116 MTAP-/- cells and in the series on HCT116 cells were 11.9 nM and 1450 nM, respectively.

Turning to `[2H]C([2H])([2H])n1ncc(-c2ccc3c(=O)[nH]nc(CN)c3c2)c1-c1c(F)cc2c(c1C#N)O[C@H]1CC[C@H]1O2` (single isomer, unassigned) [Compound 2-p1], the results for the IC50 in the series on HCT116 MTAP-/- cells and with HCT116 cells were 10.2 nM and 1300 nM, respectively. Moreover, the “Mean tumour volume (mm^3) D21” value with Lu99 xenografts (50 mpk) came out at 574 mm^3; in the series on Lu99 xenografts (100 mpk), 256 mm^3; with Lu99 xenografts (200 mpk), 165 mm^3. In addition, the “TGI (%) D21” value in the series on Lu99 xenografts (50 mpk) is listed as 72%; with Lu99 xenografts (100 mpk), 90%; in the series with Lu99 xenografts (200 mpk) it was 95%. Further, the “effect on body weight of the mice” value in series [1] (50, 100 and 200 mpk/qd, once daily for 21 days) is on record as “no effects on body weight”. The Surviving animals/group in series [1] (50 mpk), in series [1] (100 mpk) and in series [1] (200 mpk) was 12/12 in each case.

On to `[2H]C([2H])([2H])n1ncc(-c2ccc3c(=O)[nH]nc(CN)c3c2)c1-c1c(F)cc2c(c1C#N)N1CCC[C@H]1CO2` (single isomer, unassigned) [Compound 8-p1], for which the half-maximal inhibitory concentration (IC50) in the series on HCT116 MTAP-/- cells was found to be 16.1 nM; in the series on HCT116 cells, 1450 nM.
